Source: ChEMBL document CHEMBL1155004, “Antiprion activity of functionalized 9-aminoacridines related to quinacrine” (Bioorg Med Chem, 2008)

Key:
[1] = Antiprion activity against scrapie prion protein RML infected mouse ScN2a cells assessed as reduction of scrapie prion protein accumulation by immunoblot analysis; format: cell-based
[2] = Cytotoxicity against mouse ScN2a cells assessed as maximal tolerant concentration; format: cell-based; conditions: read-out: Activity
[3] = Antiprion activity against human prion Fukuoka-1 infected mouse F3 cells assessed as reduction of scrapie prion protein accumulation; format: cell-based; conditions: N2a #58 F3
[4] = Antiprion activity against scrapie prion protein 22L infected mouse N167 cells assessed as reduction of scrapie prion protein accumulation; format: cell-based
[5] = test system: Ch2; test: Antiprion activity against scrapie prion protein RML infected mouse Ch2 cells assessed as drug level required for more than 99 percent reduction of scrapie prion protein; format: cell-based
[6] = test system: ScN2a; test: Antiprion activity against scrapie prion protein RML infected mouse ScN2a cells assessed as drug level required for more than 99 percent reduction of scrapie prion protein by immunoblot analysis; format: cell-based
[7] = Antiprion activity against scrapie prion protein RML infected mouse Ch2 cells assessed as reduction of scrapie prion protein accumulation; format: cell-based
[8] = Selectivity index, ratio of maximal tolerant concentration for mouse ScN2a cells to EC50 for scrapie prion protein RML infected mouse ScN2a cells
[9] = test system: N2a #58 F3; test: Antiprion activity against human prion Fukuoka-1 infected mouse F3 cells assessed as drug level required for more than 99 percent reduction of scrapie prion protein; format: cell-based
[10] = test system: N167; test: Antiprion activity against scrapie prion protein 22L infected mouse N167 cells assessed as drug level required for more than 99 percent reduction of scrapie prion protein; format: cell-based

Row | SMILES | EC50 [1] [nM] | MNTC [2] [nM] | EC50 [3] [nM] | EC50 [4] [nM] | Activity [5] [µM] | Activity [6] [µM] | EC50 [7] [nM] | Selectivity Index [8] | Activity [9] [µM] | Activity [10] [µM]
1 | CCN(CC)CCCC(C)Nc1c2ccc(Cl)cc2nc2ccc(OC)cc12 (stereo not given) [QUINACRINE] | 230 | 2500 | 1880 | 590 | 2 | 0.8 | 460 | 11 | – | –
2 | COc1ccc2nc3cc(Cl)ccc3c(N)c2c1 | 130 | 4000 | – | – | – | 0.4 | – | 30 | – | –
3 | CCN(CC)CCCNc1c2ccc(Cl)cc2nc2ccc(OC)cc12 | 140 | 1000 | – | – | – | 0.3 | – | 7 | – | –
4 | COc1ccc2nc3cc(Cl)ccc3c(N3CCN(C)CC3)c2c1 | 360 | 4000 | – | – | – | 1.8 | > 2000 | 11 | – | –
5 | COc1ccc2nc3cc(Cl)ccc3c(Nc3cccc(N4CCOCC4)c3)c2c1 | 900 | 3000 | – | – | – | – | – | 3 | – | –
6 | COc1ccc2nc3cc(Cl)ccc3c(Nc3cccc(N4CCN(C)CC4)c3)c2c1 | 290 | 4000 | 1490 | 1190 | 1.5 | 1 | 380 | 14 | 3.5 | 3
7 | COc1ccc2nc3cc(Cl)ccc3c(Nc3cccc(N4CCCC4)c3)c2c1 | 1060 | 2000 | – | – | – | – | – | 2 | – | –
8 | COc1ccc2nc3cc(Cl)ccc3c(Nc3cccc(N(C)C)c3)c2c1 | 320 | 2000 | – | – | – | – | – | 6 | – | –
9 | COc1ccc2nc3cc(Cl)ccc3c(Nc3cccc(N4CCCCC4)c3)c2c1 | 180 | 4000 | – | – | – | 0.5 | – | 22 | – | –
10 | COc1ccc2nc3cc(Cl)ccc3c(Nc3ccc(N4CCN(C)CC4)cc3)c2c1 | 100 | 2500 | 680 | 420 | 1.2 | 0.4 | 220 | 25 | 1.5 | 1.5
11 | CCN(CC)CCCCNc1c2ccc(Cl)cc2nc2ccc(OC)cc12 | 150 | 1000 | – | – | – | 0.4 | – | 7 | – | –
12 | COc1ccc2nc3cc(Cl)ccc3c(Nc3ccc(N4CCCCC4)cc3)c2c1 | 4240 | 9000 | – | 4290 | – | 7 | – | 2 | – | –
13 | COc1ccc2nc3cc(Cl)ccc3c(NCCCN(C)C)c2c1 | 110 | 1000 | – | – | – | 0.3 | – | 9 | – | –
14 | COc1ccc2nc3cc(Cl)ccc3c(Nc3ccc(N4CCOCC4)cc3)c2c1 | 1280 | 4000 | – | – | – | 3 | – | 3 | – | –
15 | Nc1c2ccccc2nc2ccccc12 [AMINACRINE] | – | 2500 | – | – | – | – | – | – | – | –
16 | CCN(CC)c1ccc(Nc2c3ccc(Cl)cc3nc3ccc(OC)cc23)cc1 | 480 | 2000 | – | – | – | 1.5 | – | 4 | – | –
17 | COc1ccc2nc3cc(Cl)ccc3c(Nc3ccc(N(C)C)cc3)c2c1 | 510 | 2000 | – | – | – | – | – | 4 | – | –
18 | COc1ccc2nc3cc(Cl)ccc3c(Nc3ccccc3N(C)C)c2c1 | 250 | 5000 | – | – | – | 0.8 | – | 20 | – | –
19 | CCN(CC)c1ccc(Nc2c3ccccc3nc3ccccc23)cc1 | 240 | 400 | – | – | – | – | – | 2 | – | –
20 | CCN(CC)c1cccc(Nc2c3ccc(Cl)cc3nc3ccc(OC)cc23)c1 | 1010 | 3000 | – | – | – | 2.5 | – | 3 | – | –
21 | COc1ccc2nc3cc(Cl)ccc3c(NC3CCN(Cc4ccccc4)CC3)c2c1 | 420 | 2000 | 800 | 490 | 1 | 1 | 410 | 5 | – | 1.5
22 | CCN(CC)CCNc1c2ccc(Cl)cc2nc2ccc(OC)cc12 | 21 | 4000 | – | – | 3 | 0.1 | 700 | 190 | – | –
